Legend:
[1] = system: HTR1B; assay: Saa3 mRNA in primary mouse calvaria osteoblasts from Htr1b+/+ or Htr1b-/- mice; format: cell-based; settings: 25 nM, 24 h; for Saa3 expression in mouse osteoblasts: Htr1b+/+ osteoblasts
Experimental: Primary calvaria-derived osteoblasts were prepared from calvaria of 2-3 day-old newborns as previously described (Rached M-T, et al. FoxO1 Is a Positive Regulator of Bone Formation by Favoring Protein Synthesis and Resistance to Oxidative Stress in Osteoblasts. Cell Metabolism. Elsevier Ltd; 2010; 11:147-60.). Briefly, mice calvaria were sequentially digested for 20, 40, and 90 min at 37° C. in alpha-MEM (Gibco) 10% FBS containing 0.1 mg/ml of collagenase P (Worthington) and 0.25% trypsin (Gibco). Cells of the first two digests were discarded, whereas cells released from the third digestion were plated and differentiated for 7-10 days as previously described.
(§1) RNA isolation, cDNA preparation and real-time PCR analyses were carried out following standard protocols. Total RNA from cortical bone (clean, flushed femurs, were centrifugated 20 seconds at 10.000 g's to remove any remaining BM) was extracted using TRIzol (Invitrogen) followed by RNA clean-up using PureLink RNA Mini Kit (Ambion, Invitrogen). mRNA was reversed transcribed using random hexamers RNA-to-cDNA kit (Takara). Specific forward and reverse primers were used in conjunction with PowerUp SYBR Green Master Mix (Applied Biosystems) for quantitative PCR. Expression levels were analyzed using the 2^−ΔΔCt method and were normalized for the expression of the housekeeping gene Hprt unless otherwise stated.

[2] = target: T1, mouse HTR1B (Mus musculus, UniProt P28334); assay: [3H]-5-HT competition binding, membranes of HEK293T cells overexpressing murine HTR1B; settings: competition of 25 nM [3H]-5-HT; for Log IC50: log value
T1 construct: The full-length murine or human serotonin receptor 1b (Htr1b); Myc-DDK; host or cells: HEK293T (transient, Lipofectamine LTX); isolated membranes
T1 sequence (P28334 whole entry): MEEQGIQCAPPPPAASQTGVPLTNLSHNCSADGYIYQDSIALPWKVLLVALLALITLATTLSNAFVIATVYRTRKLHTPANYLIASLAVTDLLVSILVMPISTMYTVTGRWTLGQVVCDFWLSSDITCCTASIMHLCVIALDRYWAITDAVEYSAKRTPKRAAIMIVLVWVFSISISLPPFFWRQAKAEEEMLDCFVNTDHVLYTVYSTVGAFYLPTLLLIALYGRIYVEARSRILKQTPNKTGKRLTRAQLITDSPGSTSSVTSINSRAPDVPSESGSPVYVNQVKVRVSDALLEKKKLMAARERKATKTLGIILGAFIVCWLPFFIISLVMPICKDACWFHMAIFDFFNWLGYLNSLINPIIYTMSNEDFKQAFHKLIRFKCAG
Experimental: (§2) Radioactivity captured on the filters was counted using a SL300 scintillation counter (Hidex). […] Log EC50 were determined by Non-linear regression curve analysis.

[3] = system: patient-derived AML cells; assay: Patient-derived AML xenograft in NSG mice, epacadostat chow and/or Ara-C; format: in vivo, mouse; settings: day 22 after initiating therapy; Ara-C 60 mg/kg/day x 5 days, epacadostat chow 1.6 g/kg 3 weeks
Experimental: (§3) Epacadostat (AdooQ Cat #A15554)-treatment: for the WT C57BL/6J mice, treatment started at the same time than MLL/AF9 cells were transplanted. For the patient-derived AML cells (PDX) transplanted into NSG mice, treatment started 8 weeks after transplant, at the same time than Ara-C and during 3 weeks. Mice were supplied with ad libitum epacadostat-supplemented diet (Research Diets Inc.) at 800 mg/kg (low-dose) or 1.6 g/kg (high-dose). For the PDX transplanted into NSGS mice, treatment started 3 weeks after transplant, by daily gavage at 300 mg/kg (InvivoChem Cat #: V0942, dissolved in 10% DMSO, 40% PEG 300 and 50% NaCl 0.9%) for 2 weeks.
For the combination therapy (Epacadostat+chemotherapy) performed at the University of Pennsylvania, patient-derived AML cells were transplanted as previously reported (48). Briefly 6 weeks old NSG males were sublethally treated with busulfan (30 mg/kg) 24 h before transplant and 5×10^6 patient-derived AML cells were injected i.v. Engraftment was assessed, and mice were randomized at 7.5 weeks by BM aspirate as previously described. Randomized mice were treated with vehicle, cytosine arabinoside (Ara-C, 60 mg/kg/day×5 days i.p.), epacadostat chow (1.6 g/kg ad libitum) or both Ara-C and epacadostat chow for 3 weeks.

[4] = system: leukemic blasts (hCD45+hCD33+); assay: Kyn injection in low AML burden PDX mice; format: in vivo, mouse; settings: Kyn 20 mg/kg, 1 week
Experimental: 4-6 weeks old NSG (CDX model) or NSGS (PDX model) mice were pre-conditioned with sublethal (1.4 Gy) total-body irradiation. 24 h after, 1×10^6 OCI-AML3 or 2×10^5 human BM CD34^+ (healthy) or primary AML patient samples were injected i.v. Engraftment levels were monitored and mice were randomized after BM aspiration 3-4 weeks later and immunophenotyped by the presence of mCD45 (BioLegend Cat #103133, RRID: AB_10899570), hCD45 (BioLegend Cat #368512, RRID: AB_2566372), hCD33 (BioLegend Cat #303404, RRID: AB_314348), hCD34 (BioLegend Cat #343518, RRID: AB_1937203) cell populations. For the low-burden PDX model (kynurenine injections), mice were treated 1 week after transplant.
Quantification in serum from peripheral blood (mice) or BM plasma (patients) of Kyn and Trp was assessed by ELISA using independent kits (ImmunoSmol) as per manufacturer's instructions. The ratio between Kyn and Trp levels is shown. SAA3 in serum (murine SAA3 ELISA Kit Millipore) and SAA1 in patient BM plasma (Amyloid A1 DuoSet ELISA Kit (R&D) were assessed as per manufacturer's instructions.
Cell labelling was done by i.p. injection of mice with 50 mg/kg of freshly prepared 5-Ethynyl-2′-deoxyuridine-Edu-(Cayman Chemical Company Cat #20518). After 3-4 h, BM was harvested, and human cells were negatively selected by mouse cell depletion using mouse CD45 magnetic beads (Miltenyi). The human BM cells were then stained CD45 and CD33 to identify the leukemic blast. Cell cycle/proliferation analysis was performed using the Click-iT Plus EdU Flow Cytometry Assay Kit (Invitrogen, Cat #C10420) following manufacturers' instructions. Fixable viability dye (Biolegend) was used to discriminate the death population. Single color controls were used to set compensations and fluorescence minus one control were used to set gates. Analysis was performed with FlowJo software.

[5] = target: T2, human HTR1B (Homo sapiens, UniProt P28222); settings: competition of 25 nM [3H]-5-HT
T2 sequence (P28222 whole entry): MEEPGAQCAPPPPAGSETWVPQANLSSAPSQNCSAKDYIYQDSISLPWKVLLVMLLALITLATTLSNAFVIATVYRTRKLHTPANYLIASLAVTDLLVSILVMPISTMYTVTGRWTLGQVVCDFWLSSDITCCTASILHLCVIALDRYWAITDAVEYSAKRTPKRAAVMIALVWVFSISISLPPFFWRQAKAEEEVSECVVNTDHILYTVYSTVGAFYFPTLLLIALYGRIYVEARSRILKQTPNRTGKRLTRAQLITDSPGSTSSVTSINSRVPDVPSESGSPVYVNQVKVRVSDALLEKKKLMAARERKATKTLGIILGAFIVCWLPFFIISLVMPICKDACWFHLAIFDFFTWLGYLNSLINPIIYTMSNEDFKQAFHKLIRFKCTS
Experimental: The full-length murine or human serotonin receptor 1b (Htr1b) (pCMV6-Entry vector, Myc-DDK-tagged, Origene, Cat #MR222524 and RC223874 respectively) were transiently transfected into HEK293T cells using Lipofectamine LTX (Invitrogen). Transfection efficiency was assessed 24 h post-transfection by flow cytometry using the anti-Flag antibody (Sigma-Aldrich Cat #F3165, RRID: AB_259529). […] Reactions were stopped by the addition of ice-cold PBS, filtered through 0.7 μm glass fiber filters (Data Support Company). Filters were dried and melted with scintillation cocktail. Radioactivity captured on the filters was counted using a SL300 scintillation counter (Hidex). […] Log EC50 were determined by Non-linear regression curve analysis.

[6] = target: T2, human HTR1B; assay: [3H]-GR125743 competitive radioligand binding, HTR1B membranes from HEK293T stable transfectants; settings: [3H]-GR125743, human HTR1B
Experimental: [^3H]-GR125743 (PerkinElmer) radioligand binding assays were performed in standard binding buffer (50 mM Tris, 10 mM MgCl2, 0.1 mM EDTA, 0.1% BSA, 0.01% ascorbic acid, pH 7.4). Competitive binding was assessed with various concentrations of test compounds (0.3 nM to 100 μM), [^3H]-GR125743 (1.38 nM), and HTR1B membranes (isolated from HEK293T stable transfectants) in a total volume of 150 μL. Assay plates were incubated in the dark for 1 h at RT and reactions were stopped by filtration onto 0.3% polyethyleneimine pre-soaked 96-well Filtermat A (PerkinElmer), followed with three quick washes with cold wash buffer (50 mM Tris, pH 7.4). Filters were dried and melted with scintillation cocktail (Meltilex, PerkinElmer). Radioactivity was counted using a Wallac TriLux Microbeta counter (PerkinElmer).

[7] = target: T3, 5-HT1B receptor (Homo sapiens, UniProt P28222); assay: GloSensor Gi/o-mediated cAMP inhibition assay in HEK293T cells; format: cell-based
T3 construct: expressed in transfected cells; host or cells: HEK293T (transient co-transfection with GloSensor cAMP plasmid)
T3 sequence (P28222 whole entry): as above

[8] = target: T4, murine HTR1B receptor (Mus musculus, UniProt P28334); assay: [3H]-Kyn binding to Htr1b-overexpressing HEK293T membranes with increasing SB9
T4 construct: The full-length murine or human serotonin receptor 1b (Htr1b); Myc-DDK; host or cells: HEK293T (transient, Lipofectamine LTX); isolated membranes
T4 sequence (P28334 whole entry): as the sequence (P28334 whole entry) above
Experimental: as §2

[9] = system: serotonin-HTR1B signaling; assay: Gene expression in bone of treated mice (targets of serotonin-HTR1B signaling); format: in vivo, mouse
Experimental: as §1

[10] = system: MLL/AF9 AML cells; assay: MLL/AF9 syngeneic leukemia model in non-irradiated WT mice; format: in vivo, mouse; settings: SB9 5 mg/kg i.p. daily versus vehicle
Experimental: PTH bone-anabolic treatment: mice were injected intraperitoneally (i.p.) with PTH (Bachem) at 80 μg/kg/day in PBS. Injections started 1 week before MLL/AF9 injection and continued along 2-3 more weeks until mice were harvest.
SB224289-SB9-(TOCRIS Cat #1221) treatment: mice were injected intraperitoneally (i.p.) daily with SB9 (5 mg/kg in 0.9% NaCl) 1 week after leukemia injection and for the duration of the experiment. Assuming a 20 g body weight (BW) and a 2 ml total blood volume per mouse—as well as an even distribution of the drug-systemic concentration of SB9 should be approximately 50 μg/ml. Based on the MW of SB9 (557.09), the final concentration—at equal distribution—in blood should be 8.97521e-05 M (≈90 μM).
as §3
All leukemia models were introduced by intravenous (i.v.) injection and transplanted into non-irradiated secondary recipient experimental animals. BALB/c mice were used for the WEHI-3B leukemia model (0.5×10^6/cells/mouse) and C57BL/6J mice for MLL/AF9-dsRed (0.2×10^6/cells/mouse). Leukemia progression was assessed by fluorescence (MLL/AF9 dsRed) using the IVIS-Spectrum Optical Imaging System (Caliper, Perkin Elmer). Mice were shaved to reduce light attenuation.

SMILES: NCCc1c[nH]c2ccc(O)cc12 [5-HT, 5-hydroxytryptamine]
- Saa3 expression in mouse osteoblasts [1]: no effect
- IC50 [2]: 0.0811 µM
- Log IC50 [2]: −7.091 M

SMILES: Nc1ccn([C@@H]2O[C@H](CO)[C@@H](O)[C@@H]2O)c(=O)n1 [Ara-C, cytosine arabinoside]
- leukemic burden in BM [3]: modest decrease in overall leukemic burden
- leukemic burden in spleen [3]: more sustained in the spleen than in BM

SMILES: Nc1ccccc1C(=O)CC(N)C(=O)O (centres unmarked) [Kyn, kynurenine]
- Saa3 expression in Htr1b-/- primary osteoblasts [1]: failed to upregulate
- Saa3 expression in mouse osteoblasts [1]: potently upregulated
- AML burden in BM and SP [4]: increased
- proliferative capacity of the leukemic blasts [4]: increases
- serum SAA3 [4]: increases
- IC50 [5]: 24.4 µM
- Log IC50 ([5]; log value): −4.612 M
- IC50 [2]: 54.1 µM
- Log IC50 [2]: −4.267 M
- Ki [6]: 17.3 µM
- Log Ki ([6]; log value): −4.762 M
- mode of action on Gi/o-mediated cAMP production through HTR1B [7]: partial agonist
- EC50 ([7]; cAMP Gi agonist, human HTR1B): 0.772 µM
- Log EC50 ([7]; log value, cAMP Gi agonist, human HTR1B): −6.113 M

SMILES: Cc1nc(-c2ccc(-c3ccc(C(=O)N4CCc5cc6c(cc54)C4(CCN(C)CC4)CO6)cc3)c(C)c2)no1 [SB224289, 1′-methyl-5-[[2′-methyl-4“-(5-methyl-1,2,4-oxadiazol-3-yl)biphenyl-4-yl]carbonyl]-2,3,6,7-tetrahydro-spiro[furo[2,3-f]indole-3,4-”piperidine]]
- effect on Kyn binding to the murine HTR1B receptor ([8]; at ~90 μM, concentration equal to the one administered in vivo): no effect
- IC50 ([8]; competition of [3H]-Kyn (50 μM), mouse HTR1B): 7720 µM
- IC50 [2]: 1.27 µM
- Log IC50 [2]: −5.896 M
- expression of Col1a1 in bone ([9]; control osteoblast-specific gene): not affected
- expression of Cyclins D1, D2 and E1 in bone ([9]; treated versus vehicle-treated mice): upregulated
- survival [10]: significant increase in survival
